Data published in paper PMC11207040, “Synthesis and Biological Studies of New Temporin A Analogs Containing Unnatural Amino Acids in Position 7” (Pharmaceutics, 2024).
In brackets after ≈: the same amount, converted by molar mass. Several values for one entry are separate records, joined by “and”; a condition that tells them apart may be missing. Equal entries are not always repeated. Where two headings read alike, the source gives them in different places. Non-standard residues stand in square brackets, D forms with d. Residues, ends and D or L forms follow the SMILES beside them. Cit = NC(=O)NCCC[C@H](N)C(=O)O; Dap = NC[C@H](N)C(=O)O

Legend:
[1] = system: Escherichia coli NBIMCC 8785; assay type: cell-based; details: for Inhibition zone, E. coli 8785: 20 µL per disc, 24 h
Experimental: (§1) The parent peptide Temporin A and the novel analogs were subjected to tests against model strains Escherichia coli NBIMCC 8785, Bacillus subtilis NBIMCC 3562, Arthrobacter oxydans NBIMCC 9333, Pseudomonas aeruginosa NBIMCC 3700, and Candida albicans NBIMCC 74, for the assessment of their antimicrobial activity. The strains were acquired from the National Bank for Industrial Microorganisms and Cell Cultures (NBIMCC, Bulgaria). The strain E. coli 8785 was cultured in Luria-Bertani broth (LB, HiMedia, Mumbai, India); B. subtilis 3562—in nutrient broth (NB, HiMedia, Mumbai, India); A. oxydans 9333; P. aeruginosa 3700—in meat peptone agar (MPA) medium; and C. albicans 74—in yeast mold (YM) medium. An incubator shaker ES-20/60 (Biosan, Latvia) was used for the cultivation and was set to 30 °C for B. subtilis 3562, A. oxydans 9333, and C. albicans 74; and 37 °C for E. coli 8785 and P. aeruginosa 3700, with a 24 h shaking period at 120 rpm. The microbial cultures were then adjusted to a turbidity of 0.5 McFarland using a Grant-bio DEN-1B densitometer (Grant Instruments, Royston, UK) for further use.
(§2) The disk-diffusion method was used as an additional method, with the aim of determining the percent inhibition of the tested samples against the model strains. Sterile plates with LB/NB/MPA/YM agar medium were inoculated on the surface with 100 μL from each microbial culture and incubated at 30 or 37 °C for 30 min, for the suspension to penetrate the agar. After that, sterile paper discs (HiMedia, Mumbai, India) with a diameter of 6 mm were soaked with 20 µL of the peptide solutions with concentrations of 1.4 mg/mL and 10 mg/mL and placed on the agar surface. Sterile paper discs with 10% EtOH/H2O were used as a negative control, and the corresponding strain antibiotic disks (HiMedia, Mumbai, India)—as a positive control. The incubation of the plate was performed at 30/37 °C for 24 h. The antimicrobial activity was analyzed by measuring the diameter of the inhibition zones in mm. The experiments were conducted in triplicates, and the average values for the percent of inhibition as a correlation between the inhibition zone of the peptides over the inhibition zone of the antibiotic multiplied by 100 were calculated.

[2] = system: Pseudomonas aeruginosa NBIMCC 3700; assay type: cell-based; details: for Inhibition effect, P. aeruginosa 3700: zone of peptide over zone of antibiotic x 100; for Inhibition zone, P. aeruginosa 3700: 20 µL per disc, 24 h
Experimental: as §1, §2

[3] = system: MDA-MB-231 cells; assay: MTT antiproliferative assay, MDA-MB-231; assay type: cell-based, human; details: for IC50: MTT, 72 h, read-out: Mean IC50 ± SD, MDA-MB-231; for SI (Selectivity Index), MDA-MB-231: SI = IC50 MCF-12F/IC50 tumor cells
Experimental: (§3) The cell lines BALB 3T3 (mouse embryonic fibroblasts) and MCF-12F (human breast epithelial cells) were used as models for healthy tissue. The MCF-7 and MDA-MB-231 cell lines were used as in vitro models for luminal A- and basal B-type breast cancer, respectively. Cell lines were obtained from the American Type Cultures Collection (ATCC, Manassas, VA, USA). Cells were cultured in Dulbecco modified Eagle’s medium (DMEM) supplemented with 10% fetal bovine serum (FBS), 100 U/mL penicillin, and 0.1 mg/mL streptomycin (Sigma-Aldrich, Schnelldorf, Germany) in an incubator at 37 °C, 5% CO2 and 95% humidity. Plastic flasks 75 cm^2 (Biologix, Lenexa, KS, USA) were used to grow the cells.
(§4) The antiproliferative activity testing was performed on cell cultures using the MTT-dye reduction assay. This assay is based on the metabolism of MTT to insoluble formazan by mitochondrial reductases. The formazan concentration can be determined spectrophotometrically. The measured absorption is an indicator of cell viability. Cell lines (MCF-12F, MCF-7 and MDA-MB-231) were used in the experiments. Cells were plated at a density of 1 × 10^3 cells/100 µL in each well of 96-well microplates and allowed to adhere for 24 h before treatment with test compounds. A concentration range from 4 to 1000 μM was applied for 72 h. The formazan absorption was registered using a microplate reader at λ = 540 nm. Antiproliferative activities were expressed as IC50 values (concentrations required for 50% inhibition of cell growth).

[4] = system: Bacillus subtilis NBIMCC 3562; assay type: cell-based; details: broth dilution, 0 to 320 µg/mL, 24 h; NI = no inhibition monitored
Experimental: as §1
(§5) The minimal inhibitory concentration (MIC) of the peptides was determined using the broth dilution method. Stock solutions of the peptides with a concentration of 10 mg/mL in 10% EtOH/H2O were prepared. Suspensions of the bacteria in the corresponding media were added to 96-well U-shaped bottom polystyrene plates (Deltalab S.L., Spain) and exposed to the peptide in the concentration range from 0 to 320 µg/mL, and a 10% EtOH/H2O control, diluted using the same scheme as the peptides, was also used. The plates were then incubated under aerobic conditions at the corresponding temperature for 24 h. The MIC (µg/mL) was assumed as the lowest concentration of the antimicrobial, where there was visible inhibition of the strain. The absorbance was measured at 630 nm (Microplate reader PKL PPC 142, Paramedical srl, Salerno, Italy). To determine the minimal bactericidal concentration (MBC) and minimal fungicidal concentration (MFC), 10 μL from concentrations greater than or equal to the MIC was placed on the corresponding solid nutrient medium. The Petri dishes were then incubated at 30 or 37 °C for 24 h. All experiments were conducted in a triplicate.

[5] = system: Candida albicans NBIMCC 74; assay type: cell-based; details: for Inhibition zone, C. albicans 74: 20 µL per disc, 24 h
Experimental: as §1, §2

[6] = system: Bacillus subtilis NBIMCC 3562; assay type: cell-based; details: for Inhibition effect, B. subtilis 3562: zone of peptide over zone of antibiotic x 100; for Inhibition zone, B. subtilis 3562: 20 µL per disc, 24 h
Experimental: as §1, §2

[7] = system: Arthrobacter oxydans NBIMCC 9333; assay type: cell-based; details: for Inhibition effect, A. oxydans 9333: zone of peptide over zone of antibiotic x 100; for Inhibition zone, A. oxydans 9333: 20 µL per disc, 24 h
Experimental: as §1, §2

[8] = 3T3 NRU cytotoxicity/phototoxicity test; assay type: cell-based, mouse; details: mouse; for CC50: cytotoxicity, no irradiation, BALB 3T3 clone A31, Neutral Red uptake, read-out: Mean CC50 ± SD, −Irr; for CC50 at 24 h: phototoxicity, irradiated 2.4 J/cm^2, BALB 3T3 clone A31, Neutral Red uptake, read-out: Mean CC50 ± SD, +Irr
Experimental: as §3
(§6) The cytotoxicity/phototoxicity testing was performed as described by the OECD Guidelines for the Testing of Chemicals, Section 4, Test No. 432: In Vitro 3T3 NRU Phototoxicity Test. BALB 3T3, clone A31 cells were grown in 75 cm^2 tissue culture flasks in DMEM high-glucose (4.5 g/L), 10% FBS, and antibiotics at 37.5 °C, in a humidified atmosphere under 5% CO2. Cells were plated at 1 × 10^4 cells / 100 μL culture medium in each well of 96-well microplates and allowed to adhere for 24 h before treatment with test compounds. Peptides were dissolved in DMSO and diluted with culture medium to working concentrations from 4 to 1000 μM. In phototoxicity tests, 96-well plates were irradiated (+Irr) with a dose of 2.4 J/cm^2 using an artificial solar light simulator Helios-iO (SERIC Ltd., Tokyo, Japan), and the cells were incubated for an additional 24 h. After treatment with a Neutral Red medium, washing, and application of the NR Desorb solution, the absorption was measured on a microplate reader at a wavelength of 540 nm. Cytotoxicity/phototoxicity was expressed as CC50 values (concentrations required for 50% cytotoxicity).

[9] = system: BALB 3T3 clone A31 cells; assay: 3T3 NRU cytotoxicity/phototoxicity test; assay type: cell-based, mouse; details: PIF = CC50 −Irr/CC50 +Irr; PIF < 2 = not phototoxic
Experimental: as §3, §6

[10] = system: MCF-12F cells; assay: MTT antiproliferative assay, MCF-12F; assay type: cell-based, human; details: 72 h, non-tumorigenic cell line, read-out: Mean IC50 ± SD, MCF-12F
Experimental: as §3, §4

[11] = system: MCF-7 cells; assay: MTT antiproliferative assay, MCF-7; assay type: cell-based, human; details: for IC50: MTT, 72 h, read-out: Mean IC50 ± SD, MCF-7; for SI (Selectivity Index), MCF-7: SI = IC50 MCF-12F/IC50 tumor cells
Experimental: as §3, §4

[12] = system: Arthrobacter oxydans NBIMCC 9333; assay type: cell-based; details: 24 h
Experimental: as §1, §5

[13] = 10 µg/disk, positive control on the plate of the peptide of that line

Row | Structure (SMILES) | IC50 [3] | SI (Selectivity Index), MDA-MB-231 [3] | Inhibition zone, C. albicans 74 ([5]; peptide 1.4 mg/mL) | Inhibition zone, C. albicans 74 ([5]; peptide 10 mg/mL) | Inhibition zone, E. coli 8785 ([1]; peptide 1.4 mg/mL) | Inhibition zone, E. coli 8785 ([1]; peptide 10 mg/mL) | Inhibition effect, P. aeruginosa 3700 ([2]; 1.4 mg/mL) | Inhibition effect, P. aeruginosa 3700 ([2]; 10 mg/mL) | Inhibition zone, P. aeruginosa 3700 ([2]; peptide 1.4 mg/mL) | Inhibition zone, P. aeruginosa 3700 ([2]; peptide 10 mg/mL) | Inhibition effect, B. subtilis 3562 ([6]; 1.4 mg/mL) | Inhibition effect, B. subtilis 3562 ([6]; 10 mg/mL) | Inhibition zone, B. subtilis 3562 ([6]; peptide 1.4 mg/mL) | Inhibition zone, B. subtilis 3562 ([6]; peptide 10 mg/mL) | Inhibition effect, A. oxydans 9333 ([7]; 1.4 mg/mL) | Inhibition effect, A. oxydans 9333 ([7]; 10 mg/mL) | Inhibition zone, A. oxydans 9333 ([7]; peptide 1.4 mg/mL) | Inhibition zone, A. oxydans 9333 ([7]; peptide 10 mg/mL) | CC50 [8] | CC50 at 24 h [8] | also measured
1 | CNC(C)C1CCC(N)C(OC2C(N)CC(N)C(OC3OCC(C)(O)C(NC)C3O)C2O)O1 (stereo not shown) [Gentamicin, reference compound] | – | – | – | – | – | – | – | – | – | – | – | – | – | – | – | – | – | – | – | – | Inhibition zone, E. coli 8785, antibiotic control [1, 13]: 18.0 mm; Inhibition zone, P. aeruginosa 3700, antibiotic control [2, 13]: 17.0 mm and 16.0 mm
2 | CC[C@H](C)[C@H](NC(=O)CNC(=O)[C@H](CO)NC(=O)[C@H](CC(C)C)NC(=O)[C@@H](NC(=O)[C@H](CN)NC(=O)CNC(=O)[C@@H](NC(=O)[C@H](CC(C)C)NC(=O)[C@@H]1CCCN1C(=O)[C@H](CC(C)C)NC(=O)[C@@H](N)Cc1ccccc1)[C@@H](C)CC)C(C)C)C(=O)N[C@@H](CC(C)C)C(N)=O [DTDap, FLPLIG-Dap-VLSGIL-NH2] (H-FLPLIG[Dap]VLSGIL-NH2; N-terminus assumed) | 581 ± 17.5 µM | 1.09 | 0.0 mm | 0.0 mm | 0.0 mm | 0.0 mm | 0.0% | 51.8% | 0.0 mm | 8.8 ± 0.8 mm | 0.0% | 0.0% | 0.0 mm | 0.0 mm | 0.0% | 53.0% | 0.0 mm | 9.8 ± 0.3 mm | 924 ± 21.6 µM | 933 ± 20.7 µM | MIC, B. subtilis 3562 [4]: 320 µg/mL (≈ 241 µM); PIF (photo irritation factor) [9]: 0.99; IC50 [10]: 630 ± 9.97 µM; IC50 [11]: 473 ± 16.2 µM; SI (Selectivity Index), MCF-7 [11]: 1.33
3 | O=C(N[C@H](CO)[C@H](O)c1ccc([N+](=O)[O-])cc1)C(Cl)Cl [Chloramphenicol, reference compound] | – | – | – | – | – | – | – | – | – | – | – | – | – | – | – | – | – | – | – | – | Inhibition zone, B. subtilis 3562, antibiotic control ([6]; 30 µg/disk, positive control on the plate of the peptide of that line): 26.0 mm and 25.0 mm
4 | CC[C@H](C)[C@H](NC(=O)CNC(=O)[C@H](CO)NC(=O)[C@H](CC(C)C)NC(=O)[C@@H](NC(=O)[C@H](CCCNC(N)=O)NC(=O)CNC(=O)[C@@H](NC(=O)[C@H](CC(C)C)NC(=O)[C@@H]1CCCN1C(=O)[C@H](CC(C)C)NC(=O)[C@@H](N)Cc1ccccc1)[C@@H](C)CC)C(C)C)C(=O)N[C@@H](CC(C)C)C(N)=O [DTCit, FLPLIG-Cit-VLSGIL-NH2] (H-FLPLIG[Cit]VLSGIL-NH2; N-terminus assumed) | 335 ± 4.37 µM | 0.90 | 0.0 mm | 0.0 mm | 0.0 mm | 0.0 mm | 0.0% | 0.0% | 0.0 mm | 0.0 mm | 0.0% | 0.0% | 0.0 mm | 0.0 mm | 0.0% | 0.0% | 0.0 mm | 0.0 mm | 356 ± 7.64 µM | 332 ± 12.3 µM | MIC, A. oxydans 9333 ([12]; broth dilution, 0 to 320 µg/mL, NI = no inhibition monitored): 160 µg/mL (≈ 114 µM); MBC, A. oxydans 9333 ([12]; plated from concentrations ≥ MIC): 160 µg/mL (≈ 114 µM); PIF (photo irritation factor) [9]: 1.07; IC50 [10]: 301 ± 10.5 µM; IC50 [11]: 150 ± 6.94 µM; SI (Selectivity Index), MCF-7 [11]: 2.01
5 | CCC(C)n1ncn(-c2ccc(N3CCN(c4ccc(OCC5COC(Cn6cncn6)(c6ccc(Cl)cc6Cl)O5)cc4)CC3)cc2)c1=O (stereo not shown) [Itraconazole, reference compound] | – | – | – | – | – | – | – | – | – | – | – | – | – | – | – | – | – | – | – | – | Inhibition zone, C. albicans 74, antibiotic control [5, 13]: 15.0 mm and 14.0 mm
